Results as given in PubChem BioAssay AID1963968 (Molecular Pharmacology Branch, DTP, NCI, 2024).

Test system: 945468-187-T-J3-PDC spheroids with HUVEC/MSC, viability
Test: Anticancer human tumor 945468-187-T-J3-PDC patient-derived rectal carcinoma cell line growth inhibition [PI3K]
Conditions: for viability, T/C: stronger effect = lower value; active means viability on the fitted dose curve at most 10% of control; inactive means the rest
Summary of the method: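 We assembled tumor spheroids that included a stromal compartment of HUVEC and MSCs, then exposed them to targeted agents alone and together with PI3K pathway inhibitors. Concentration series descended by half-log from clinically achievable Cmax levels. Viability served as the endpoint.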

[1] = curve of first compound, second compound 0.00316 µM
[2] = curve of first compound, second compound 0.01 µM
[3] = curve of first compound, second compound 0.0316 µM
[4] = curve of first compound, second compound 0.1 µM
[5] = curve of first compound, second compound 0.316 µM
[6] = curve of first compound, second compound 1 µM
[7] = second compound 0.00316 µM, first compound 0.0316 µM
[8] = second compound 0.00316 µM, first compound 0.1 µM
[9] = second compound 0.00316 µM, first compound 0.316 µM
[10] = second compound 0.00316 µM, first compound 1 µM
[11] = second compound 0.01 µM, first compound 0.0316 µM
[12] = second compound 0.01 µM, first compound 0.1 µM
[13] = second compound 0.01 µM, first compound 0.316 µM
[14] = second compound 0.01 µM, first compound 1 µM
[15] = second compound 0.0316 µM, first compound 0.0316 µM
[16] = second compound 0.0316 µM, first compound 0.1 µM
[17] = second compound 0.0316 µM, first compound 0.316 µM
[18] = second compound 0.0316 µM, first compound 1 µM
[19] = second compound 0.0316 µM, first compound 3.16 µM
[20] = second compound 0.0316 µM, first compound 10 µM
[21] = second compound 0.1 µM, first compound 0.0316 µM
[22] = second compound 0.1 µM, first compound 0.1 µM
[23] = second compound 0.1 µM, first compound 0.316 µM
[24] = second compound 0.1 µM, first compound 1 µM
[25] = second compound 0.1 µM, first compound 3.16 µM
[26] = second compound 0.1 µM, first compound 10 µM
[27] = second compound 0.316 µM, first compound 0.0316 µM
[28] = second compound 0.316 µM, first compound 0.1 µM
[29] = second compound 0.316 µM, first compound 0.316 µM
[30] = second compound 0.316 µM, first compound 1 µM
[31] = second compound 0.316 µM, first compound 3.16 µM
[32] = second compound 0.316 µM, first compound 10 µM
[33] = second compound 1 µM, first compound 0.0316 µM
[34] = second compound 1 µM, first compound 0.1 µM
[35] = second compound 1 µM, first compound 0.316 µM
[36] = second compound 1 µM, first compound 1 µM
[37] = second compound 1 µM, first compound 3.16 µM
[38] = second compound 1 µM, first compound 10 µM
[39] = curve of first compound, second compound 3.16 µM
[40] = curve of first compound, second compound 10 µM
[41] = second compound 3.16 µM, first compound 0.0316 µM
[42] = second compound 3.16 µM, first compound 0.1 µM
[43] = second compound 3.16 µM, first compound 0.316 µM
[44] = second compound 3.16 µM, first compound 1 µM
[45] = second compound 3.16 µM, first compound 3.16 µM
[46] = second compound 3.16 µM, first compound 10 µM
[47] = second compound 10 µM, first compound 0.0316 µM
[48] = second compound 10 µM, first compound 0.1 µM
[49] = second compound 10 µM, first compound 0.316 µM
[50] = second compound 10 µM, first compound 1 µM
[51] = second compound 10 µM, first compound 3.16 µM
[52] = second compound 10 µM, first compound 10 µM
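Further: spheroids exposed to agents for 7 days before viability read.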
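Wherever viability, T/C is given: 100% = DMSO vehicle control viability.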

C#Cc1c(F)ccc2cc(O)cc(-c3ncc4c(N5CC6CCC(C5)N6)nc(OCC56CCCN5CC(F)C6)nc4c3F)c12 (stereo not given) + CC(Nc1ccc2c(c1)OCCn1cc(N3C(=O)OCC3C(F)F)nc1-2)C(N)=O
> 10 µM: IC50 [1] | IC50 [2] | IC50 [3] | IC50 [4] | IC50 [5]
2.76 µM: IC50 [6]
inactive: viability, T/C [7] 94% | viability, T/C [8] 103% | viability, T/C [9] 94% | viability, T/C [10] 114% | viability, T/C (second compound 0.00316 µM, first compound 3.16 µM) 120% | viability, T/C (second compound 0.00316 µM, first compound 10 µM) 113% | viability, T/C [11] 94.1% | viability, T/C [12] 100% | viability, T/C [13] 94.6% | viability, T/C [14] 115% | viability, T/C (second compound 0.01 µM, first compound 3.16 µM) 138% | viability, T/C (second compound 0.01 µM, first compound 10 µM) 102% | viability, T/C [15] 100% | viability, T/C [16] 104% | viability, T/C [17] 99.8% | viability, T/C [18] 118% | viability, T/C [19] 115% | viability, T/C [20] 105% | viability, T/C [21] 122% | viability, T/C [22] 112% | viability, T/C [23] 97% | viability, T/C [24] 117% | viability, T/C [25] 115% | viability, T/C [26] 103% | viability, T/C [27] 111% | viability, T/C [28] 99.6% | viability, T/C [29] 91.3% | viability, T/C [30] 106% | viability, T/C [31] 91% | viability, T/C [32] 56.1% | viability, T/C [33] 76.2% | viability, T/C [34] 73.2% | viability, T/C [35] 64.9% | viability, T/C [36] 70.2% | viability, T/C [37] 47.3% | viability, T/C [38] 29%

CCN1CCN(Cc2ccc(Nc3ncc(F)c(-c4cc(F)c5nc(C)n(C(C)C)c5c4)n3)nc2)CC1 + CC(Nc1ccc2c(c1)OCCn1cc(N3C(=O)OCC3C(F)F)nc1-2)C(N)=O
0.191 µM: IC50 [5]
0.539 µM: IC50 [4]
inactive: viability, T/C (second compound 0.00316 µM, first compound 0.00316 µM) 92% | viability, T/C (second compound 0.00316 µM, first compound 0.01 µM) 103% | viability, T/C [7] 98% | viability, T/C [8] 95.6% | viability, T/C [9] 95.2% | viability, T/C [10] 93.1% | viability, T/C (second compound 0.01 µM, first compound 0.00316 µM) 89.4% | viability, T/C (second compound 0.01 µM, first compound 0.01 µM) 103% | viability, T/C [11] 95.1% | viability, T/C [12] 106% | viability, T/C [13] 123% | viability, T/C [14] 70.1% | viability, T/C (second compound 0.0316 µM, first compound 0.00316 µM) 104% | viability, T/C (second compound 0.0316 µM, first compound 0.01 µM) 96.7% | viability, T/C [15] 94.2% | viability, T/C [16] 97.3% | viability, T/C [17] 102% | viability, T/C [18] 53% | viability, T/C (second compound 0.1 µM, first compound 0.00316 µM) 91.2% | viability, T/C (second compound 0.1 µM, first compound 0.01 µM) 102% | viability, T/C [21] 94.1% | viability, T/C [22] 94.1% | viability, T/C [23] 69% | viability, T/C [24] 28.1% | viability, T/C (second compound 0.316 µM, first compound 0.00316 µM) 87.7% | viability, T/C (second compound 0.316 µM, first compound 0.01 µM) 77.5% | viability, T/C [27] 77.8% | viability, T/C [28] 69.7% | viability, T/C [29] 35% | viability, T/C [30] 23.4% | viability, T/C (second compound 1 µM, first compound 0.00316 µM) 76.9% | viability, T/C (second compound 1 µM, first compound 0.01 µM) 56.7% | viability, T/C [33] 48.6% | viability, T/C [34] 43% | viability, T/C [35] 32.1% | viability, T/C [36] 25%
> 1 µM: IC50 [1] | IC50 [2] | IC50 [3]
0.0295 µM: IC50 [6]

C[C@@H](NC(=O)c1ncnc(N)c1Cl)c1ncc(C(=O)Nc2cc(C(F)(F)F)c(Cl)cn2)s1 + Cc1nc(NC(=O)N2CCCC2C(N)=O)sc1-c1ccnc(C(C)(C)C(F)(F)F)c1
inactive: viability, T/C [15] 107% | viability, T/C [16] 107% | viability, T/C [17] 91.6% | viability, T/C [18] 111% | viability, T/C [19] 106% | viability, T/C [20] 105% | viability, T/C [21] 101% | viability, T/C [22] 97.2% | viability, T/C [23] 94.8% | viability, T/C [24] 110% | viability, T/C [25] 111% | viability, T/C [26] 107% | viability, T/C [27] 95.8% | viability, T/C [28] 98.6% | viability, T/C [29] 95.4% | viability, T/C [30] 120% | viability, T/C [31] 112% | viability, T/C [32] 100% | viability, T/C [33] 108% | viability, T/C [34] 115% | viability, T/C [35] 102% | viability, T/C [36] 114% | viability, T/C [37] 97.6% | viability, T/C [38] 107% | viability, T/C [41] 108% | viability, T/C [42] 98% | viability, T/C [43] 101% | viability, T/C [44] 96.4% | viability, T/C [45] 99% | viability, T/C [46] 103% | viability, T/C [47] 67.1% | viability, T/C [48] 51.1% | viability, T/C [49] 44.1% | viability, T/C [50] 56% | viability, T/C [51] 61.9% | viability, T/C [52] 51.3%
> 10 µM: IC50 [3] | IC50 [4] | IC50 [5] | IC50 [6] | IC50 [39] | IC50 [40]

CC(Cn1ccc(-c2ccc(C#N)c(Cl)c2)n1)NC(=O)c1cc(C(C)O)[nH]n1 (stereo not given) + Cc1nc(NC(=O)N2CCCC2C(N)=O)sc1-c1ccnc(C(C)(C)C(F)(F)F)c1
inactive: viability, T/C [15] 99.7% | viability, T/C [16] 104% | viability, T/C [17] 90.9% | viability, T/C [18] 93.4% | viability, T/C [19] 102% | viability, T/C [20] 92.7% | viability, T/C [21] 106% | viability, T/C [22] 101% | viability, T/C [23] 91.9% | viability, T/C [24] 109% | viability, T/C [25] 106% | viability, T/C [26] 96.9% | viability, T/C [27] 95.6% | viability, T/C [28] 102% | viability, T/C [29] 93.8% | viability, T/C [30] 108% | viability, T/C [31] 98.8% | viability, T/C [32] 88.1% | viability, T/C [33] 112% | viability, T/C [34] 109% | viability, T/C [35] 98.1% | viability, T/C [36] 112% | viability, T/C [37] 100% | viability, T/C [38] 98.8% | viability, T/C [41] 104% | viability, T/C [42] 102% | viability, T/C [43] 92.5% | viability, T/C [44] 91.7% | viability, T/C [45] 101% | viability, T/C [46] 104% | viability, T/C [47] 65.3% | viability, T/C [48] 58.1% | viability, T/C [49] 53.7% | viability, T/C [50] 60.2% | viability, T/C [51] 54.4% | viability, T/C [52] 63%
> 10 µM: IC50 [3] | IC50 [4] | IC50 [5] | IC50 [6] | IC50 [39] | IC50 [40]

COc1c(OCCCN2CCOCC2)ccc2c3n(c(=NC(=O)c4cnc(N)nc4)nc12)CCN3
inactive: viability, T/C (compound 0.00316 µM) 96% [middle of 8 runs] | viability, T/C (compound 0.01 µM) 96.8% [middle of 8 runs] | viability, T/C (compound 0.0316 µM) 95.7% [middle of 8 runs] | viability, T/C (compound 0.1 µM) 39.7% [middle of 8 runs] | viability, T/C (compound 0.316 µM) 19.6% [middle of 8 runs] | viability, T/C (compound 1 µM) 16.4% [middle of 8 runs]
80.4 nM [middle of 8 runs]: IC50 (compound alone, run of 06/13/2023)
